We go through four compounds from ChEMBL document CHEMBL4219273, “Discovery of a novel olefin derivative as a highly potent and selective acetyl-CoA carboxylase 2 inhibitor with in vivo efficacy” (Bioorg Med Chem Lett, 2018).

For orientation: IC50 means the concentration at which inhibition is half-maximal. As usually defined, the AUC(0-t) is the area under the concentration-time curve up to a stated or last time point. In general, Cmax refers to the peak of the concentration-time curve. The clearance is the volume of plasma or blood freed of the substance per unit of time. A high value points to a high capacity for elimination. By AUC is commonly meant concentration integrated over time. The low end stands for less exposure, the high end for more exposure. For orientation: bioavailability means the share of a dose that reaches the circulation, judged against a reference dose that is usually intravenous. Read a high bioavailability as good availability.

One series concerns the target Acetyl-CoA carboxylase 2 (Homo sapiens, UniProt O00763). Briefly: Inhibition of recombinant human ACC2 assessed as reduction in conversion of acetyl-CoA to malonyl-CoA incubated for 1 to 3 hrs with substrate by MALDI-TOF-MS analysis.
For the next series, the target named is Acetyl-CoA carboxylase 1 (Homo sapiens, UniProt Q13085). Kind of series: Inhibition of recombinant human ACC1 assessed as reduction in conversion of acetyl-CoA to malonyl-CoA incubated for 1 to 3 hrs with substrate by MALDI-TOF-MS analysis.
The species named for the next series is Homo sapiens. Kind of series: Selectivity ratio of IC50 for recombinant human ACC1 to IC50 for recombinant human ACC2.
The target in the next series is T1, Cytochrome P450 1A2 (Homo sapiens, UniProt P05177).
T1 sequence (P05177 whole entry): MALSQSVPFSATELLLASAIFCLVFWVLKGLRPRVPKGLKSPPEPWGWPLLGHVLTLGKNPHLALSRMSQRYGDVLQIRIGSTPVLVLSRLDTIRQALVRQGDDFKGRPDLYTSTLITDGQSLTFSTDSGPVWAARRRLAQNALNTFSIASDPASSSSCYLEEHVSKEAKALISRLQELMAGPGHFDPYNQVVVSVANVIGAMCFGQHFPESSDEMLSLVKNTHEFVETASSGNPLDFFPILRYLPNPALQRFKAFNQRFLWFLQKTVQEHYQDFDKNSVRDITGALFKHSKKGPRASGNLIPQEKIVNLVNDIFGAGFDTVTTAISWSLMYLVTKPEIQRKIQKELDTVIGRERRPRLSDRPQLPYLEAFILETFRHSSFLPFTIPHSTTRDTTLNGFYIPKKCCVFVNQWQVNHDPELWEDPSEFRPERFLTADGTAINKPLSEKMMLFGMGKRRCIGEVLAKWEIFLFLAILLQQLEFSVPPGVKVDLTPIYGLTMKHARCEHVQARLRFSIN
Kind of series: Inhibition of CYP1A2 (unknown origin). The format is ADME.

Another series has as its target Cytochrome P450 2C19 (Homo sapiens, UniProt P33261). Kind of series: Inhibition of CYP2C19 (unknown origin). The format is ADME.
For a further series, the target named is Cytochrome P450 2C9 (Homo sapiens, UniProt P11712). Kind of series: Inhibition of CYP2C9 (unknown origin). The class given is ADME.
Another series deals with Cytochrome P450 2D6 (Homo sapiens, UniProt P10635). Kind of series: Inhibition of CYP2D6 (unknown origin). The format is ADME.
The target of the next series is Cytochrome P450 3A4 (Homo sapiens, UniProt P08684). Briefly: Inhibition of CYP3A4 (unknown origin). The format is ADME.
A short description of series [1]: Metabolic stability in human liver microsomes assessed as parent compound remaining after 30 mins. The format is ADME, microsome. Particulars: read-out: Stability. (In general: Liver microsomes are a subcellular fraction often used to study metabolism.)
A short description of series [2]: Metabolic stability in rat liver microsomes assessed as parent compound remaining after 30 mins. The class given is ADME, microsome. The note with it: read-out: Stability.
Series [3] has as its system Mus musculus. Briefly: Suppression of malonyl-CoA levels in C57BL/6 mouse skeletal muscle at 1 mg/kg, po measured at 6 hrs post dose by LC-MS analysis relative to control. The format is functional.
The subject of series [4] is Mus musculus. Kind of series: Suppression of malonyl-CoA levels in C57BL/6 mouse skeletal muscle at 2.5 mg/kg, po measured at 6 hrs post dose by LC-MS analysis relative to control. The format is functional.
A short description of series [5]: Plasma concentration in C57BL/6 mouse at 1 mg/kg, po measured at 6 hrs post dose by LC-MS analysis. The format is ADME, organism-based.
A short description of series [6]: Plasma concentration in C57BL/6 mouse at 2.5 mg/kg, po measured at 6 hrs post dose by LC-MS analysis. The class given is ADME, organism-based.
Series [7] in a line: AUC (0 to 24 hrs) in rat at 50 mg/kg/day, po administered for 4 consecutive days measured on day 1. The format is ADME, organism-based. On the set-up: dose 50 mg/kg/day, time < 24 hr, route oral. The note with it: in vivo.
Series [8] is described as follows: Cmax in rat at 50 mg/kg/day, po administered for 4 consecutive days measured on day 1. The class given is ADME, organism-based. On the set-up: dose 50 mg/kg/day, route oral. The note with it: in vivo.
For series [9], the system named is Rattus norvegicus. Kind of series: Toxicity in rat assessed as abnormal clinical signs at 50 mg/kg/day, po administered for 4 consecutive days. The class given is organism-based. The note with it: in vivo.
The test system of series [10] is Rattus norvegicus. Briefly: Toxicity in rat assessed as histopathological lesions in heart at 50 mg/kg/day, po administered for 4 consecutive days. The class given is organism-based. Particulars: in vivo.
Series [11] is described as follows: Total clearance in C57BL/6 mouse at 0.2 mg/kg, iv. The class given is ADME, organism-based. Particulars: in vivo.
Series [12] in a line: AUC in C57BL/6 mouse at 2.5 mg/kg, po. The class given is ADME, organism-based. Particulars: in vivo.
Series [13] in a line: Cmax in C57BL/6 mouse at 2.5 mg/kg, po. The class given is ADME, organism-based. On the set-up: dose 2.5 mg/kg, route oral. The note with it: in vivo.
The nature of series [14]: Oral bioavailability in C57BL/6 mouse at 2.5 mg/kg. The class given is ADME, organism-based. The note with it: in vivo.

Bounds are passed on as bounds.

Chain of Cytochrome P450 3A4 (P08684 whole entry): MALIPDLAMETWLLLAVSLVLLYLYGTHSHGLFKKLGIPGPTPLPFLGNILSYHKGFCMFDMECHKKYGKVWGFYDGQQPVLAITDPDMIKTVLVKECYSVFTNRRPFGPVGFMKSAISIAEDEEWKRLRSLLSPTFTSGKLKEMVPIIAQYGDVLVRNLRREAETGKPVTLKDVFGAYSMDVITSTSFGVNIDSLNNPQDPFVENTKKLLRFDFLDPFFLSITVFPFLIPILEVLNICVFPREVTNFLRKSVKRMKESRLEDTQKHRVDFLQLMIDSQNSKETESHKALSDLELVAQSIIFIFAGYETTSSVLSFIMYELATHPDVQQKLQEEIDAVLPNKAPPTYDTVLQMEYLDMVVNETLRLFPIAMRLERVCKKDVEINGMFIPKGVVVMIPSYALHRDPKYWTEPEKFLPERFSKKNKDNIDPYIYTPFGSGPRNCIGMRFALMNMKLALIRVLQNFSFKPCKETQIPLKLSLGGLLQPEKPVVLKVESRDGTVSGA
Chain of Cytochrome P450 2C19 (P33261 whole entry): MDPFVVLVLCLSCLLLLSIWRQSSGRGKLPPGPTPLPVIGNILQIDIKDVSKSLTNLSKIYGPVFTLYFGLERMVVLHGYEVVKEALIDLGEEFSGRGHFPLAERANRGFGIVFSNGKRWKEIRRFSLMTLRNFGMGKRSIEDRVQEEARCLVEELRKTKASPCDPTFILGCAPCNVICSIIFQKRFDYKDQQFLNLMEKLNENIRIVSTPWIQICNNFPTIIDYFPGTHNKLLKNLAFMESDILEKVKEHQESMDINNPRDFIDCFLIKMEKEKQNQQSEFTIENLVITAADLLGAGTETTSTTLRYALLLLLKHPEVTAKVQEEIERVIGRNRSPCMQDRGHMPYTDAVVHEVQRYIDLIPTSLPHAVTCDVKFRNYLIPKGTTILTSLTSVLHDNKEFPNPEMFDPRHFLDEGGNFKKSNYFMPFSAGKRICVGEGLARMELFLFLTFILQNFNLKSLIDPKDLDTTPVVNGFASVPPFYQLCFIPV
Chain of Cytochrome P450 2C9 (P11712 whole entry): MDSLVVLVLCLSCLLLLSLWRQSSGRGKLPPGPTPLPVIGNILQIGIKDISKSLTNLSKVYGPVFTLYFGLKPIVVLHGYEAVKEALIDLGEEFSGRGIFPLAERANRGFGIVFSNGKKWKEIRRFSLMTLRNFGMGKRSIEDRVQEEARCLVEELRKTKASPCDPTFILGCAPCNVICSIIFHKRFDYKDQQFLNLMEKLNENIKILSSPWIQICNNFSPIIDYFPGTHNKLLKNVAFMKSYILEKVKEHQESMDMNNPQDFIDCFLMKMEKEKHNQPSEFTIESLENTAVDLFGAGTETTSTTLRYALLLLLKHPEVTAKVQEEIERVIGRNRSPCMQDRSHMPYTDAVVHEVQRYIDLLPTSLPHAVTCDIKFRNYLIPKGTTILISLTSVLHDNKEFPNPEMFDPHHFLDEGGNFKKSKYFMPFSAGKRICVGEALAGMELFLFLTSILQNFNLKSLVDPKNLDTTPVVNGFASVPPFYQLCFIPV
Chain of Acetyl-CoA carboxylase 2 (O00763 whole entry): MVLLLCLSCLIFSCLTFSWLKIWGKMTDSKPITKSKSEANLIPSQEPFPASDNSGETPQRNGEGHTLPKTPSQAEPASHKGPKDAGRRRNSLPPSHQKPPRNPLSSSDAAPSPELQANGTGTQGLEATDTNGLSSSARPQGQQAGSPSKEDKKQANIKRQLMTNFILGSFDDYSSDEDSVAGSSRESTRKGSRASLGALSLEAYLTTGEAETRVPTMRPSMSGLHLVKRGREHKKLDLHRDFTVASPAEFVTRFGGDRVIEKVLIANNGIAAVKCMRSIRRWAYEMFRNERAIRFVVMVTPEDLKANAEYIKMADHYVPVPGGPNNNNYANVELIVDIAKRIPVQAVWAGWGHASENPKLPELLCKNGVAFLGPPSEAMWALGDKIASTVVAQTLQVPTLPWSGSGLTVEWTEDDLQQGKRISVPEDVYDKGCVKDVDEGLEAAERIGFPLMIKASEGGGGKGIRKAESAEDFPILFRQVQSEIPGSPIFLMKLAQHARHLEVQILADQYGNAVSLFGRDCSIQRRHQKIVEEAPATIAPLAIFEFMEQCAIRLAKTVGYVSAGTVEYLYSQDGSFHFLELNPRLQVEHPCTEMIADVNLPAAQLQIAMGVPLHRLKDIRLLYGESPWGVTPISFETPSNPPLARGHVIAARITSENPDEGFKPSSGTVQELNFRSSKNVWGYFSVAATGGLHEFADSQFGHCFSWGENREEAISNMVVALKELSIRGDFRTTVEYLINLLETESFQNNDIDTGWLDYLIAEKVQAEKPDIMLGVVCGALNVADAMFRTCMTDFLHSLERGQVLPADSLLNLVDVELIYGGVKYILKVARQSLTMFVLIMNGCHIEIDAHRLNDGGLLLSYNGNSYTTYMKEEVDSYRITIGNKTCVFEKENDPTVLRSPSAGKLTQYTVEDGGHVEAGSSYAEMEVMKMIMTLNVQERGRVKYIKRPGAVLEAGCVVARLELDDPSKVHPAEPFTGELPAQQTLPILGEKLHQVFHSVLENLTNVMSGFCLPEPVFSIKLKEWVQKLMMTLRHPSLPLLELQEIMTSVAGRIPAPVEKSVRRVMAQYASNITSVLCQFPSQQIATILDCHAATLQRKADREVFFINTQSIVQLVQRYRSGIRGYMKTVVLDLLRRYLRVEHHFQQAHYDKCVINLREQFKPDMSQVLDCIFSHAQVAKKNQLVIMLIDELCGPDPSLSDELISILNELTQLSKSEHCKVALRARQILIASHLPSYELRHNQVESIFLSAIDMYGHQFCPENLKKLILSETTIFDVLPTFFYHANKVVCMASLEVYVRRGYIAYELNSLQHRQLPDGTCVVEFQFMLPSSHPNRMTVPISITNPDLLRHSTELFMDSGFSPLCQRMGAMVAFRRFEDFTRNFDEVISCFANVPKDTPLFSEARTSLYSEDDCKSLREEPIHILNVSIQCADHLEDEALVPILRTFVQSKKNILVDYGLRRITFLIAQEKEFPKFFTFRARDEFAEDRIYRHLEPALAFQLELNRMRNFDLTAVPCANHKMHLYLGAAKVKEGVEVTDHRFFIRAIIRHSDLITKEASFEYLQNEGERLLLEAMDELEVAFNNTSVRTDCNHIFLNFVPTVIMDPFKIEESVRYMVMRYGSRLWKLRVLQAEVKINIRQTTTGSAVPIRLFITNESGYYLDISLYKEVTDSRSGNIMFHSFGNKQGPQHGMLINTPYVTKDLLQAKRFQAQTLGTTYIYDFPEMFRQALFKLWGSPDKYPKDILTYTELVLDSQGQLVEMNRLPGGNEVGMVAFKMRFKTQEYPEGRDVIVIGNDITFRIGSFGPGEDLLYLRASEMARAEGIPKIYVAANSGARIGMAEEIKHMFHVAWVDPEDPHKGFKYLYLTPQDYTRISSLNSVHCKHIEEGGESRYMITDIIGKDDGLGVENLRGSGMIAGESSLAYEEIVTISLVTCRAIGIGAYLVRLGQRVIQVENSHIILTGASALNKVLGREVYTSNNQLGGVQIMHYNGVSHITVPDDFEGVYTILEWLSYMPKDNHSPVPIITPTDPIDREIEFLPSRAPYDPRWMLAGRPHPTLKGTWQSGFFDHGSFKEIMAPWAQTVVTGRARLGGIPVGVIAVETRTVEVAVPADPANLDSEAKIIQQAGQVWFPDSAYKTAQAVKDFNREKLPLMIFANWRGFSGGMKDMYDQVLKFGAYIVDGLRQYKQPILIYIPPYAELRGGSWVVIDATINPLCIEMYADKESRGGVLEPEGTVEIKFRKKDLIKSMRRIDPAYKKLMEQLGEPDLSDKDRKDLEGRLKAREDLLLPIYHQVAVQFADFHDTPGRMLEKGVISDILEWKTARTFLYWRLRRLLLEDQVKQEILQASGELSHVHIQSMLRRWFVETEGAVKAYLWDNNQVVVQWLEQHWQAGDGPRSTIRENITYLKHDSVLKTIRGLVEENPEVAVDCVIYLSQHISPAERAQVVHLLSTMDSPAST
Chain of Cytochrome P450 2D6 (P10635 whole entry): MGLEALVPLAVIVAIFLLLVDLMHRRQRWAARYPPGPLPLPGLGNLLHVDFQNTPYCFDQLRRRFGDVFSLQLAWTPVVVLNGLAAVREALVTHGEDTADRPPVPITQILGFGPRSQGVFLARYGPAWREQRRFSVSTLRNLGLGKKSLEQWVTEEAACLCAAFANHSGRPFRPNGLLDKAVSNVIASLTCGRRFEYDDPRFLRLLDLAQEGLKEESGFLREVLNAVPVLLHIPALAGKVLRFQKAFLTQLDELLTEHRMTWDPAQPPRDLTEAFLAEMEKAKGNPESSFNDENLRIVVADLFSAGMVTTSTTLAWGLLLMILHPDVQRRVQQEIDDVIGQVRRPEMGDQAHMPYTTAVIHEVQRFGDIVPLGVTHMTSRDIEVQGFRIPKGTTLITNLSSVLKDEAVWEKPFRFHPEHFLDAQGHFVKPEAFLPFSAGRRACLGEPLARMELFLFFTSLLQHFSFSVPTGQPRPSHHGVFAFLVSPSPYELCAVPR

With `CC(=O)N[C@@H](C)/C=C/c1ccc(Oc2ccc3nc(C)sc3c2Cl)nc1`, the IC50 on Acetyl-CoA carboxylase 2 was 0.026 µM; at Acetyl-CoA carboxylase 1, 12.2 µM; against Cytochrome P450 1A2 it was more than 20 µM; on Cytochrome P450 2C19, more than 20 µM; at Cytochrome P450 2C9, more than 20 µM; against Cytochrome P450 2D6, more than 20 µM. The same compound gave an IC50 at Cytochrome P450 3A4 of more than 20 µM. In addition, the Ratio IC50 in the series listed under Homo sapiens was 469. For the same compound, the remaining at 0.5 h in [1] is 87%; in [2], 75%.
On to `CCOc1nc2ccc(Oc3ccc(/C=C/[C@H](C)NC(C)=O)cn3)c(Cl)c2s1`, for which the concentration for half-maximal inhibition (IC50) was 0.0019 µM on Acetyl-CoA carboxylase 2; 1.95 µM on Acetyl-CoA carboxylase 1; more than 20 µM against Cytochrome P450 1A2; 18 µM on Cytochrome P450 2C19; 13 µM against Cytochrome P450 2C9; more than 20 µM at Cytochrome P450 2D6. The compound also had an IC50 against Cytochrome P450 3A4 of more than 20 µM. For the same compound, the Ratio IC50 in the series filed under Homo sapiens worked out at 1030. For the same compound, the remaining at 0.5 h in series [1] was 91%; in series [2], 100%. Further, the Activity is 20% with Mus musculus [3], 41% in the series with Mus musculus [4], “Non-Toxic” with Rattus norvegicus [9] and “Non-Toxic” with Rattus norvegicus [10]. The concentration at 6 h came to 1130 ng/mL in series [5] and 2620 ng/mL in series [6]. This compound came in with an area under the curve AUC(0-t) at 24 h in [7] of 620 µg·h/mL. For the same compound, the Cmax in series [8] is 34600 ng/mL; in series [13], 4230 ng/mL. This compound also displayed a clearance in [11] of 0.354 mL/min/kg. For the same compound, the AUC in [12] was determined as 99.8 µg·h/mL. The compound further yielded a bioavailability in series [14] of 83.5%.
For the compound `CC(=O)N[C@@H](C)/C=C/c1ccc(Oc2ccc3nc(C(C)C)sc3c2Cl)nc1`, the IC50 at Acetyl-CoA carboxylase 2 was 0.0043 µM; at Acetyl-CoA carboxylase 1, 0.303 µM; against Cytochrome P450 1A2 it was more than 20 µM; at Cytochrome P450 2C19, 18 µM; at Cytochrome P450 2C9 it was 13 µM; against Cytochrome P450 2D6, more than 20 µM. Further, the IC50 at Cytochrome P450 3A4 was 19 µM. Also, the Ratio IC50 in the series filed under Homo sapiens stood at 70. The remaining at 0.5 h was 83% in series [1] and 52% in series [2].
`CC(=O)N[C@@H](C)/C=C/c1ccc(Oc2ccc3nc(C(C)(C)O)sc3c2Cl)nc1`: the IC50 is 0.01 µM on Acetyl-CoA carboxylase 2; 3.15 µM on Acetyl-CoA carboxylase 1; more than 20 µM at Cytochrome P450 1A2; more than 20 µM at Cytochrome P450 2C19; 17 µM at Cytochrome P450 2C9; more than 20 µM against Cytochrome P450 2D6. Besides, at Cytochrome P450 3A4, the IC50 was more than 20 µM. In addition, in the series listed under Homo sapiens, the Ratio IC50 came out at 315. Besides, the remaining at 0.5 h in series [1] amounted to 92%; in series [2], 96%.
